From ChEMBL document CHEMBL4765285, “Discovery of orally active indirubin-3'-oxime derivatives as potent type 1 FLT3 inhibitors for acute myeloid leukemia” (Eur J Med Chem, 2020)
Calls of active or inactive are those of the source. The rule behind the calls is not given here.

Legend:
[1] = molecular target: T1, Receptor-type tyrosine-protein kinase FLT3 (Homo sapiens, UniProt P36888)
T1 sequence (P36888 whole entry): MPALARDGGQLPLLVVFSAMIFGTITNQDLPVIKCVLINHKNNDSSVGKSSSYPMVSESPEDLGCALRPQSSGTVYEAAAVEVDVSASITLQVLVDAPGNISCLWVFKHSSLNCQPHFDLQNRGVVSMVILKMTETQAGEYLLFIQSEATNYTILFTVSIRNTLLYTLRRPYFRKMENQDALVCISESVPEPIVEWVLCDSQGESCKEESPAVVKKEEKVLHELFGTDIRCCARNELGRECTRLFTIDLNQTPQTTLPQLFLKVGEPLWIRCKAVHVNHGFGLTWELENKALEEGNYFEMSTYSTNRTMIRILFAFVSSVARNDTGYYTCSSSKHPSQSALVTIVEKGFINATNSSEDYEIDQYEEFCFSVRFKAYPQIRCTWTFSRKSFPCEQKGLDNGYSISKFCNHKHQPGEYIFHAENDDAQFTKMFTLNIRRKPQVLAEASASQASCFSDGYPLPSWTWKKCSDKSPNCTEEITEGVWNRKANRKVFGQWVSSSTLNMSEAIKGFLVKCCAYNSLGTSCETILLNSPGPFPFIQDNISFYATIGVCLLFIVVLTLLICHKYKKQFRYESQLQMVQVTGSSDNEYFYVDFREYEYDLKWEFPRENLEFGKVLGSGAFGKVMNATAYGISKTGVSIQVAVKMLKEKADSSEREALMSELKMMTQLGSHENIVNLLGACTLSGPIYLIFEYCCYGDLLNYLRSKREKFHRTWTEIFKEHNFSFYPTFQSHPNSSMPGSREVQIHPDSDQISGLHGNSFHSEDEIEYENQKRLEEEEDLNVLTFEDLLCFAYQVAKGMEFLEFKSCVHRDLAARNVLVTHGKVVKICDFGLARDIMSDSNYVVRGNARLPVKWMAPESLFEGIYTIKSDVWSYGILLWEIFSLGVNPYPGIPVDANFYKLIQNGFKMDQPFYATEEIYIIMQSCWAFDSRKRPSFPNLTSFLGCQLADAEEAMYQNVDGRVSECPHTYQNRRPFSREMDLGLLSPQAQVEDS
Description: Inhibition of recombinant His-tagged human FLT3 expressed in baculovirus expression system using peptide substrate incubated for 30 mins in presence of ATP by HTRF assay

MV4-11 [2] = test: cells; conditions: Homo sapiens, MV4-11, 72 h
Description: Antiproliferative activity against human MV4-11 cells assessed as cell growth inhibition after 72 hrs by WST assay

[3] = Clearance in ICR mouse at 10 mg/kg, iv or po measured up to 1440 mins by LC-MS/MS analysis; format: ADME, organism-based; conditions: in vivo
[4] = Half-life in ICR mouse at 10 mg/kg, iv or po measured up to 1440 mins by LC-MS/MS analysis; format: ADME, organism-based; conditions: in vivo
[5] = Oral bioavailability in ICR mouse at 10 mg/kg measured up to 1440 mins by LC-MS/MS analysis; format: ADME, organism-based; conditions: in vivo
MV4-11 [6] = test: Antiproliferative activity against human MV4-11 cells assessed as growth inhibition after 72 hrs; format: functional
[7] = AUClast in ICR mouse at 10 mg/kg, iv or po measured up to 1440 mins by LC-MS/MS analysis; format: ADME, organism-based; parameters: dose 10 mg/kg, time <=1440; conditions: in vivo
[8] = Toxicity in BALB/c nu/nu mouse xenografted with human MV4-11 cells assessed as body weight loss at 20 mg/kg, po administered for 21 days; format: organism-based; conditions: in vivo, 504 h, time 21 day
MV4-11 [9] = test: Antitumor activity against human MV4-11 cells xenografted in BALB/c nu/nu mouse assessed as reduction in tumor volume at 20 mg/kg, po administered once daily for 21 days measured twice daily during compound dosing; format: functional, organism-based; conditions: time 21.0 day
[10] = Cmax in ICR mouse at 10 mg/kg, iv or po measured up to 1440 mins by LC-MS/MS analysis; format: ADME, organism-based; parameters: dose 10 mg/kg, time <=1440; conditions: in vivo
SK-OV-3 = test: cells; conditions: Homo sapiens, SK-OV-3, read-out: INH
Description: Antiproliferative activity against human SK-OV-3 cells assessed as cell growth inhibition at 1 uM by WST assay relative to control

HCT-116 = test: cells; conditions: Homo sapiens, HCT-116, read-out: INH
Description: Antiproliferative activity against human HCT-116 cells assessed as cell growth inhibition at 1 uM by WST assay relative to control

HepG2 = test: cells; conditions: Homo sapiens
Description: Antiproliferative activity against human HepG2 cells assessed as cell growth inhibition by WST assay

MOLM-14 [11] = test: cells; conditions: Homo sapiens
Description: Antiproliferative activity against wild type human MOLM14 cells assessed as cell growth inhibition by MTT assay

MOLM-14 [12] = test: cells; conditions: Homo sapiens; remark: listed apart in the source
Description: Antiproliferative activity against human MOLM14 cells harboring ITD mutant assessed as cell growth inhibition by MTT assay

PC-3 = test: cells; conditions: Homo sapiens, PC-3, read-out: INH
Description: Antiproliferative activity against human PC3 cells assessed as cell growth inhibition at 1 uM by WST assay relative to control

MV4-11 [13] = test: Antiproliferative activity against human MV4-11 cells assessed as cell growth inhibition by Celltiter-Glo luminescent assay; format: functional
MOLM-14 [14] = test: cells; conditions: Homo sapiens; remark: listed apart in the source
Description: Antiproliferative activity against human MOLM14 cells harboring ITD/D835Y mutant assessed as cell growth inhibition by MTT assay

MDA-MB-231 = test: cells; conditions: Homo sapiens, MDA-MB-231, read-out: INH
Description: Antiproliferative activity against human MDA-MB-231 cells assessed as cell growth inhibition at 1 uM by WST assay relative to control

K562 = test: Antiproliferative activity against human K562 cells assessed as cell growth inhibition by WST assay; format: functional
MOLM-14 [15] = test: cells; conditions: Homo sapiens; remark: listed apart in the source
Description: Antiproliferative activity against human MOLM14 cells harboring ITD/F691L mutant assessed as cell growth inhibition by MTT assay

A549 = test: cells; conditions: Homo sapiens, A549, read-out: INH
Description: Antiproliferative activity against human A549 cells assessed as cell growth inhibition at 1 uM by WST assay relative to control

Row | SMILES | IC50 [1] | GI50 (MV4-11 [2]) | other results
1 | COc1ccc2c(c1)/C(=C1/Nc3ccccc3/C1=N\OCCN1CCN(C)CC1)C(=O)N2 | 2.1 nM | 20 nM | 
2 | O=C1Nc2ccc(F)cc2/C1=C1/Nc2ccc(F)cc2/C1=N\OCCN1CCOCC1 | 98.3 nM | 116 nM | 
3 | CN1CCN(CCO/N=C2/C(=C3/C(=O)Nc4ccc([N+](=O)[O-])cc43)Nc3ccc(O)cc32)CC1 | 18.9 nM | 50 nM | 
4 | COc1ccc2c(c1)/C(=C1/Nc3ccccc3/C1=N\OCCN1CCNCC1)C(=O)N2 | 12.4 nM | 22 nM | 
5 | Cl.O=C1Nc2ccc(F)cc2/C1=C1/Nc2ccc(F)cc2/C1=N\OCCN1CCNCC1 | 15.8 nM | 8.3 nM | clearance [3]: 28.1 mL/min/kg; half-life [4]: 3.4 h; bioavailability [5]: 16.7%
6 | COC(=O)c1ccc2c(c1)/C(=C1/Nc3ccccc3/C1=N\OCCN1CCNCC1)C(=O)N2 |  |  | GI50 (MV4-11 [6]): 1 nM; bioavailability [5]: 1.43%
7 | O=C1Nc2ccc([N+](=O)[O-])cc2/C1=C1/Nc2ccc(F)cc2/C1=N\OCCN1CCNCC1 | 27.6 nM | 10.2 nM | 
8 | O=C1Nc2ccc(F)cc2/C1=C1/Nc2ccccc2/C1=N\OCCN1CCCC1 | 257 nM | 212 nM | 
9 | O=C1Nc2ccc(F)cc2/C1=C1/Nc2ccccc2/C1=N\OCCN1CCCCC1 | 142 nM | 263 nM | 
10 | Cl.NCCO/N=C1/C(=C2/C(=O)Nc3ccc([N+](=O)[O-])cc32)Nc2ccc(O)cc21 | 8.6 nM | 95.3 nM | bioavailability [5]: 0%
11 | O=C1Nc2ccccc2/C1=C1/Nc2ccccc2/C1=N\OCCN1CCCC1 | 41.3 nM | 104 nM | 
12 | CN1CCN(CCO/N=C2/C(=C3/C(=O)Nc4ccc([N+](=O)[O-])cc43)Nc3ccc(F)cc32)CC1 | 31.2 nM | 118 nM | 
13 | CN1CCN(CCO/N=C2/C(=C3/C(=O)Nc4ccc(OC(F)(F)F)cc43)Nc3ccccc32)CC1 | 5.62 nM | 7 nM | 
14 | O=C1Nc2ccc(F)cc2/C1=C1/Nc2ccc(F)cc2/C1=N\OCCN1CCCCC1 | 45 nM | 105 nM | 
15 | O=C1Nc2ccc([N+](=O)[O-])cc2/C1=C1/Nc2ccc(O)cc2/C1=N\OCCN1CCOCC1 | 345 nM | 100 nM | 
16 | Cl.O=C1Nc2ccc([N+](=O)[O-])cc2/C1=C1/Nc2ccc(O)cc2/C1=N\OCCN1CCNCC1 | 12.2 nM | 26.5 nM | clearance [3]: 70.4 mL/min/kg; bioavailability [5]: 0%
17 | O=C1Nc2ccccc2/C1=C1/Nc2ccccc2/C1=N\OCCN1CCCCC1 | 128 nM | 138 nM | 
18 | O=C1Nc2ccc(F)cc2/C1=C1/Nc2ccccc2/C1=N\OCCNC1CCNCC1 | 9.47 nM | 11.9 nM | 
19 | Cl.O=C1Nc2ccc(F)cc2/C1=C1/Nc2ccc(F)cc2/C1=N\OCCNC1CCNCC1 | 11.6 nM | 8.47 nM | clearance [3]: 231 mL/min/kg; half-life [4]: 9.2 h; bioavailability [5]: 15.3%
20 | O=C1Nc2ccc([N+](=O)[O-])cc2/C1=C1/Nc2ccc(O)cc2/C1=N\O |  | 133 nM | 
21 | CN1CCN(CCO/N=C2/C(=C3/C(=O)Nc4ccc(F)cc43)Nc3ccccc32)CC1 | 3.3 nM | 11.1 nM | 
22 | O=C1Nc2ccc([N+](=O)[O-])cc2/C1=C1/Nc2ccc(O)cc2/C1=N\OCCBr | 324 nM | 470 nM | 
23 | CN1CCN(CCO/N=C2/C(=C3/C(=O)Nc4ccccc43)Nc3ccccc32)CC1 | 9.29 nM | 54.8 nM | 
24 | O=C1Nc2ccc(OC(F)(F)F)cc2/C1=C1/Nc2ccccc2/C1=N\OCCN1CCNCC1 | 40.2 nM | 17 nM | 
25 | Cl.O=C1Nc2ccccc2/C1=C1/Nc2ccccc2/C1=N\OCCN1CCNCC1 | 2.7 nM |  | AUC(0-t) at 24 h [7]: 1200 ng·h/mL; Activity [8]: Non-Toxic; Activity (MV4-11 [9]): Active; Cmax [10]: 69.7 ng/mL; bioavailability [5]: 51%
26 | O=C1Nc2ccccc2/C1=C1/Nc2ccccc2/C1=N\OCCNC1CCNCC1 | 20.9 nM | 15.1 nM | 
27 | O=C1Nc2ccc(F)cc2/C1=C1/Nc2ccc(F)cc2/C1=N\OCCN1CCCC1 | 116 nM | 634 nM | 
28 | CN1CCN(CCO/N=C2/C(=C3/C(=O)Nc4ccc(F)cc43)Nc3ccc(F)cc32)CC1 | 27 nM | 31.5 nM | 
29 | CCc1nc(C(N)=O)c(Nc2ccc(N3CCC(N4CCN(C)CC4)CC3)c(OC)c2)nc1NC1CCOCC1 [GILTERITINIB] |  |  | inhibition at 1 µM (SK-OV-3): 23.3%; inhibition at 1 µM (HCT-116): 45.1%; GI50 (HepG2): 2200 nM; GI50 (MOLM-14 [11]): 4.94 nM; GI50 (MOLM-14 [12]): 3.29 nM; inhibition at 1 µM (PC-3): 41.8%; GI50 (MV4-11 [13]): 0.9 nM; GI50 (MOLM-14 [14]): 1.91 nM; inhibition at 1 µM (MDA-MB-231): 42.1%; GI50 (K562): 1010 nM; GI50 (MOLM-14 [15]): 5.24 nM; inhibition at 1 µM (A549): 4.05%
30 | Cl.O=C1Nc2ccc([N+](=O)[O-])cc2/C1=C1/Nc2ccccc2/C1=N\OCCN1CCNCC1 | 13.2 nM | 7.01 nM | clearance [3]: 108 mL/min/kg; bioavailability [5]: 1.33%
